Columns and labels:
[1] = tested on: CREAE model MOG in C57BL mice; test: CREAE model, MOG-induced, clinical EAE score; format: in vivo
[2] = Storage stability / handling of the isolated phospholipid; format: physicochemical
From the text: Suitable diluents and carriers can be found in the literature in texts such as Remington's Pharmaceutical Sciences. One particular material investigated by the inventors has been PEG (polyethylene glycol) eg. PEG200. This can be used at amounts between 1 and 99% PEG to 99% to 1% by weight of active phospholipid, preferably 20 to 80% PEG to 80 to 20% of phospholipid and more preferably 40 to 60% PEG to 60 to 40% by weight of phospholipid.
The invention provides a first method of its preparation of compounds GGPc, DHGLADHGLAPc and AAPc in a one step process (scheme 5, method A) by reaction of sn-glycerophosphocholine cadmium complex with γ-linolenic, dihomo-γ-linolenic, or arachidonic anhydride (formed eg. from the n-6 acid and dicylohexylcarbodiimide). Purification of the crude product uses eg. copper sulfate washes to remove DMAP and column chromatography to take out other by-products. The first batch of product for the γ-linolenic product (44 g, 85% purity) was obtained as a yellow wax.
On a 7 g scale higher purity GGPc could be obtained by more rigorous chromatography. Furthermore freeze-drying a dioxan solution of this material gave a white solid. This solid was hygroscopic and gained weight and went to a foam on prolonged exposure to the atmosphere.

acute rat EAE = details: depending on dose; cited from earlier work
EAE = details: guinea-pig; cited from earlier work

Compound	effect on EAE score compared to CCC (dose response curve) ([1]; 100 microL dose, p<0.050 compared to CCC (150 microL))	protection / severity of CREAE ([1]; 100 ul of 50% phospholipid in PEG200)	efficacy in the CREAE model compared to the lipid GGG of PCT/GB2004/003524 ([1]; MOG in C57BL mice, oral, initial results)	protection in CREAE ([1]; dose 100 ul, oral)	shape of dose response curve ([1]; doses 25, 50, 100 and 200 microL)	effect on EAE score (dose response curve) ([1]; higher dose of 200microL)	purity after storage (deterioration) ([2]; over 6 months, first batch, initially 85% purity yellow wax, turned brown suggesting oxidation) [%]	hygroscopicity of freeze-dried white solid ([2]; prolonged exposure to the atmosphere, gained weight and went to a foam)	protection in acute rat EAE (acute rat EAE)	effect on incidence and severity of EAE (EAE)
CCCCC/C=C\C/C=C\C/C=C\CCCCC(=O)OC[C@H](COP(=O)([O-])OCC[N+](C)(C)C)OC(=O)CCCC/C=C\C/C=C\C/C=C\CCCCC [GGPc, 1,2-Di(γ-linolenyl)-sn-glycerophosphocholine]	significant effect	protection/reduced severity	superior in efficacy	excellent protection	bell shaped curve	no effect	70	hygroscopic	–	–
CCCCC/C=C\C/C=C\CCCCCCCC(=O)O [linoleic acid]	–	–	–	–	–	–	–	–	dose-dependent action on the clinical severity but did not abolish it	partially suppresses
CCCCC/C=C\C/C=C\C/C=C\CCCCC(=O)O [γ-linolenic acid]	–	–	–	–	–	–	–	–	fully protective	–

Reference: patent publication US20090036410A1, “Structured Phospholipids” (BTG INTERNATIONAL LIMITED, priority 2004, published 2009)
